Each compound was assayed on T47D cells (assay: Cellular growth inhibition assay for T47D cells, CellTiter-Glo). Conditions: 72 hours treatment, CellTiter-Glo 2.0 cell viability.
Format: cell-based, human
Method: T47D cells were purchased from American Type Cell Culture (ATCC Cat #HTB-133) and then seeded on poly-D-lysine coated, black clear-bottom 384-well plates at 3000/well in 25 μL Dulbecco's Modified Eagle Medium (DMEM) supplemented with 10% w/w Fetal bovine serum (FBS), 0.2 units/mL recombinant human insulin (Gibco Cat #12585014), and 1% w/w Pen-Strep. Pen-Strep is a commercially available mixture of penicillin G and streptomycin, which is used in mammalian cell culture media to prevent bacterial contamination. Dulbecco's Modified Eagle Medium (DMEM) supplemented with 10% w/w fetal bovine serum (FBS), 0.2 units/mL recombinant human insulin, and 1% w/w Pen-Strep is herein referred to as Treatment Medium. Following seeding of cells in the plates, the plates were spun at 300×g for 30 seconds, then equilibrated to room temperature for 30 minutes, and then deposited in a humidified tissue culture incubator maintained at 37° C. with 5% CO2.
At 24 hours after seeding of the cells, dilutions of test compound were prepared in DMSO and dissolved in Treatment Medium, to achieve a final DMSO concentration of 0.5% w/w, thereby providing the Test Compound Solution. A 25 μL aliquot of the Test Compound Solution was added to cells in the well plates. An equal volume of a solution containing DMSO and Treatment Medium was used as a negative control. Following treatment of cells with Test Compound Solution or said equal volume of a solution containing DMSO and Treatment Medium, the plates were spun at 300×g for 30 seconds, and then left in an incubator for 72 hours.
At the end of the treatment duration, cell viability was quantified with CellTiter-Glo 2.0 reagent (Promega Cat #G9243). For this purpose, plates were equilibrated to room temperature for 30 minutes, and then 25 μL of CellTiter-Glo 2.0 reagent was added to cells in the plate wells. Plates were then agitated on a shaker for two minutes at 500 rpm and subsequently incubated at room temperature for 10 minutes. Following incubation, the plates were spun at 3000×g for 30 seconds, then sealed with an optical adhesive cover, and luminescence readings were measured with an EnVision Plate Reader (Perkin Elmer).
Data was normalized using zero luminescence for baseline. A four-parameter non-linear regression curve fit was applied to dose-response data in GraphPad Prism data analysis software to determine the half-maximal growth inhibitory concentration (GI50) for each test compound.

| GI50 | Structure (SMILES) |
| --- | --- |
| > 3000 nM | Cc1sc2c(c1C)C(c1ccc(C3CC3C3CC4(CCN(c5cnc(C(=O)N[C@H]6C(C)(C)[C@H](Oc7ccc(C#N)c(Cl)c7)C6(C)C)cn5)CC4)C3)cc1)=N[C@@H](C)c1nnc(C)n1-2 (some centres unmarked) [Compound I-536] |
| > 3000 nM | Cc1sc2c(c1C)C(c1ccc(C3CC3C3CC4(CCN(c5cnc(C(=O)N[C@H]6C(C)(C)[C@H](Oc7ccc(C#N)c(Cl)c7)C6(C)C)cn5)CC4)C3)cc1)=NC(Cc1ncco1)c1nnc(C)n1-2 (some centres unmarked) [Compound I-538] |
| > 3000 nM | Cc1sc2c(c1C)C(c1ccc(C3CC3C3CC4(CCN(c5cnc(C(=O)N[C@H]6C(C)(C)[C@H](Oc7ccc(C#N)c(Cl)c7)C6(C)C)cn5)CC4)C3)cc1)=NC(Cc1ncco1)c1nnc(C)n1-2 (some centres unmarked) [Compound I-539] |
| < 500 nM | Cc1sc2c(c1C)C(c1ccc(C3CC3C3CC4(CCN(c5cnc(C(=O)N[C@H]6C(C)(C)[C@H](Oc7ccc(C#N)c(Cl)c7)C6(C)C)cn5)CC4)C3)cc1)=NC(Cc1ncco1)c1nnc(C)n1-2 (some centres unmarked) [Compound I-540] |
| < 500 nM | Cc1sc2c(c1C)C(c1ccc(C3CC3C3CC4(CCN(c5cnc(C(=O)N[C@H]6C(C)(C)[C@H](Oc7ccc(C#N)c(Cl)c7)C6(C)C)cn5)CC4)C3)cc1)=NC(Cc1ncco1)c1nnc(C)n1-2 (some centres unmarked) [Compound I-541] |
| > 3000 nM | Cc1sc2c(c1C)C(c1ccc(N3CC(C4CCC(Cc5ncc(C(=O)N[C@H]6C(C)(C)[C@H](Oc7ccc(C#N)c(Cl)c7)C6(C)C)cn5)CC4)C3)cc1)=N[C@@H](Cc1ncco1)c1nnc(C)n1-2 (some centres unmarked) [Compound I-543] |
| 500 to 1500 nM | Cc1sc2c(c1C)C(c1ccc(N3CC(C4CCC(Cc5ncc(C(=O)N[C@H]6C(C)(C)[C@H](Oc7ccc(C#N)c(Cl)c7)C6(C)C)cn5)CC4)C3)cc1)=N[C@@H](Cc1ncco1)c1nnc(C)n1-2 (some centres unmarked) [Compound I-544] |
| > 3000 nM | Cc1sc2c(c1C)C(c1ccc(C3CC3C3CC4(CCN(c5ncc(C(=O)N[C@H]6C(C)(C)[C@H](Oc7ccc(C#N)c(Cl)c7)C6(C)C)cn5)CC4)C3)cc1)=N[C@@H](C)c1nnc(C)n1-2 (some centres unmarked) [Compound I-556] |
| 500 to 1500 nM | Cc1sc2c(c1C)C(c1ccc(C#CC3CC(Cc4ncc(C(=O)N[C@H]5C(C)(C)[C@H](Oc6ccc(C#N)c(Cl)c6)C5(C)C)cn4)C3)cc1)=NC(Cc1ncco1)c1nnc(C)n1-2 (some centres unmarked) [Compound I-559] |
| < 500 nM | Cc1sc2c(c1C)C(c1ccc(C#CC3CC(Cc4ncc(C(=O)N[C@H]5C(C)(C)[C@H](Oc6ccc(C#N)c(Cl)c6)C5(C)C)cn4)C3)cc1)=NC(Cc1ncco1)c1nnc(C)n1-2 (some centres unmarked) [Compound I-561] |

Same assay, conditions: Homo sapiens, T47D, 72 h, 72 hours treatment, CellTiter-Glo 2.0 cell viability

| GI50 | Structure (SMILES) |
| --- | --- |
| > 3000 nM | Cc1sc2c(c1C)C(c1ccc(N3CC(CC4CCN(c5cnc(C(=O)N[C@H]6C(C)(C)[C@H](Oc7ccc(C#N)c(Cl)c7)C6(C)C)cn5)CC4)C3)cc1)=NC1(CC1)c1nnc(C)n1-2 [Compound I-526] |
| > 3000 nM | Cc1sc2c(c1C)C(c1ccc(N3CC(CC4CN(c5cnc(C(=O)N[C@H]6C(C)(C)[C@H](Oc7ccc(C#N)c(Cl)c7)C6(C)C)cn5)C4)C3)cc1)=NC1(CC1)c1nnc(C)n1-2 [Compound I-527] |
| > 3000 nM | Cc1sc2c(c1C)C(c1ccc(N3CC(C4CCN(c5cnc(C(=O)N[C@H]6C(C)(C)[C@H](Oc7ccc(C#N)c(Cl)c7)C6(C)C)cn5)CC4)C3)cc1)=NC1(CC1)c1nnc(C)n1-2 [Compound I-528] |
| > 3000 nM | Cc1sc2c(c1C)C(c1ccc(N3CC(CC4CCN(c5ccc(C(=O)N[C@H]6C(C)(C)[C@H](Oc7ccc(C#N)c(Cl)c7)C6(C)C)nc5)CC4)C3)cc1)=NC1(CC1)c1nnc(C)n1-2 [Compound I-529] |
| > 3000 nM | Cc1sc2c(c1C)C(c1ccc(OC3CC4(C3)CC3(CCN(c5ccc(C(=O)N[C@H]6C(C)(C)[C@H](Oc7ccc(C#N)c(Cl)c7)C6(C)C)nc5)CC3)C4)cc1)=NC1(CC1)c1nnc(C)n1-2 [Compound I-530] |
| > 3000 nM | Cc1sc2c(c1C)C(c1ccc(N3CC(CC4CN(c5ccc(C(=O)N[C@H]6C(C)(C)[C@H](Oc7ccc(C#N)c(Cl)c7)C6(C)C)nc5)C4)C3)cc1)=NC1(CC1)c1nnc(C)n1-2 [Compound I-531] |
| > 3000 nM | Cc1sc2c(c1C)C(c1ccc(N3CC(CC4CN(c5ccc(C(=O)N[C@H]6C(C)(C)[C@H](Oc7ccc(C#N)c(Cl)c7)C6(C)C)cn5)C4)C3)cc1)=NC1(CC1)c1nnc(C)n1-2 [Compound I-532] |
| 1500 to 3000 nM | Cc1sc2c(c1C)C(c1ccc(N3CC(C4CCN(c5ccc(C(=O)N[C@H]6C(C)(C)[C@H](Oc7ccc(C#N)c(Cl)c7)C6(C)C)nc5)CC4)C3)cc1)=NC1(CC1)c1nnc(C)n1-2 [Compound I-533] |
| > 3000 nM | Cc1sc2c(c1C)C(c1ccc(N3CC(C4CCN(c5ccc(C(=O)N[C@H]6C(C)(C)[C@H](Oc7ccc(C#N)c(Cl)c7)C6(C)C)cn5)CC4)C3)cc1)=NC1(CC1)c1nnc(C)n1-2 [Compound I-534] |
| > 3000 nM | Cc1sc2c(c1C)C(c1ccc(C3CC3C3CC4(CCN(c5cnc(C(=O)N[C@H]6C(C)(C)[C@H](Oc7ccc(C#N)c(Cl)c7)C6(C)C)cn5)CC4)C3)cc1)=N[C@@H](C)c1nnc(C)n1-2 (some centres unmarked) [Compound I-535] |
| > 3000 nM | Cc1sc2c(c1C)C(c1ccc(C3CC3C3CC4(CCN(c5ncc(C(=O)N[C@H]6C(C)(C)[C@H](Oc7ccc(C#N)c(Cl)c7)C6(C)C)cn5)CC4)C3)cc1)=N[C@@H](C)c1nnc(C)n1-2 (some centres unmarked) [Compound I-537] |
| > 3000 nM | Cc1sc2c(c1C)C(c1ccc(OC3(C)CC4(CCN(c5ncc(C(=O)N[C@H]6C(C)(C)[C@H](Oc7ccc(C#N)c(Cl)c7)C6(C)C)cn5)CC4)C3)cc1)=N[C@@H](Cc1ncco1)c1nnc(C)n1-2 [Compound I-542] |
| 500 to 1500 nM | Cc1sc2c(c1C)C(c1ccc(ON3CC4(C3)CC3(CCN(c5cnc(C(=O)N[C@H]6C(C)(C)[C@H](Oc7ccc(C#N)c(Cl)c7)C6(C)C)cn5)CC3)C4)cc1)=N[C@@H](Cc1ncco1)c1nnc(C)n1-2 [Compound I-545] |
| > 3000 nM | Cc1sc2c(c1C)C(c1ccc(OC3CC4(C3)CC3(CCN(c5ccc(C(=O)N[C@H]6C(C)(C)[C@H](Oc7ccc(C#N)c(Cl)c7)C6(C)C)nc5)CC3)C4)cc1)=N[C@@H](Cc1ncco1)c1nnc(C)n1-2 [Compound I-546] |
| > 3000 nM | Cc1sc2c(c1C)C(c1ccc(OC3CC4(C3)CC3(CCN(c5ccc(C(=O)N[C@H]6C(C)(C)[C@H](Oc7ccc(C#N)c(Cl)c7)C6(C)C)nc5)CC3)C4)cc1)=N[C@@H](C)c1nnc(C)n1-2 [Compound I-549] |
| < 500 nM | Cc1sc2c(c1C)C(c1ccc(N3CC(C4CCN(c5ccc(C(=O)N[C@H]6C(C)(C)[C@H](Oc7ccc(C#N)c(Cl)c7)C6(C)C)cn5)CC4)C3)cc1)=N[C@@H](C)c1nnc(C)n1-2 [Compound I-551] |
| 1500 to 3000 nM | Cc1sc2c(c1C)C(c1ccc(N3CC(C4CCN(c5ccc(C(=O)N[C@H]6C(C)(C)[C@H](Oc7ccc(C#N)c(Cl)c7)C6(C)C)nc5)CC4)C3)cc1)=N[C@@H](C)c1nnc(C)n1-2 [Compound I-552] |
| < 500 nM | Cc1sc2c(c1C)C(c1ccc(CC3CC4(CCN(c5ccc(C(=O)N[C@H]6C(C)(C)[C@H](Oc7ccc(C#N)c(Cl)c7)C6(C)C)nc5)CC4)C3)cc1)=N[C@@H](Cc1ncco1)c1nnc(C)n1-2 [Compound I-553] |
| < 500 nM | Cc1sc2c(c1C)C(c1ccc(CC3CCN(c4ncc(C(=O)N[C@H]5C(C)(C)[C@H](Oc6ccc(C#N)c(Cl)c6)C5(C)C)cn4)CC3)cc1)=N[C@@H](Cc1ncco1)c1nnc(C)n1-2 [Compound I-554] |
| < 500 nM | Cc1sc2c(c1C)C(c1ccc(N3CC(C4CCN(c5cnc(C(=O)N[C@H]6C(C)(C)[C@H](Oc7ccc(C#N)c(Cl)c7)C6(C)C)cn5)CC4)C3)cc1)=N[C@@H](Cc1ncco1)c1nnc(C)n1-2 [Compound I-558] |
| 500 to 1500 nM | Cc1sc2c(c1C)C(c1ccc(C#CC3CC(Cc4ncc(C(=O)N[C@H]5C(C)(C)[C@H](Oc6ccc(C#N)c(Cl)c6)C5(C)C)cn4)C3)cc1)=NC(Cc1ncco1)c1nnc(C)n1-2 (some centres unmarked) [Compound I-560] |
| < 500 nM | Cc1sc2c(c1C)C(c1ccc(N3CC(CC4CN(c5ncc(C(=O)N[C@H]6C(C)(C)[C@H](Oc7ccc(C#N)c(Cl)c7)C6(C)C)cn5)C4)C3)cc1)=N[C@@H](Cc1ncco1)c1nnc(C)n1-2 [Compound I-562] |
| < 500 nM | Cc1sc2c(c1C)C(c1ccc(N3CC(CC4CN(c5cnc(C(=O)N[C@H]6C(C)(C)[C@H](Oc7ccc(C#N)c(Cl)c7)C6(C)C)cn5)C4)C3)cc1)=N[C@@H](Cc1ncco1)c1nnc(C)n1-2 [Compound I-563] |
| < 500 nM | Cc1sc2c(c1C)C(c1ccc(N3CC(C4CCN(c5ccc(C(=O)N[C@H]6C(C)(C)[C@H](Oc7ccc(C#N)c(Cl)c7)C6(C)C)nc5)CC4)C3)cc1)=N[C@@H](Cc1ncco1)c1nnc(C)n1-2 [Compound I-564] |
| < 500 nM | Cc1sc2c(c1C)C(c1ccc(N3CC(CC4CCN(c5ncc(C(=O)N[C@H]6C(C)(C)[C@H](Oc7ccc(C#N)c(Cl)c7)C6(C)C)cn5)CC4)C3)cc1)=N[C@@H](Cc1ncco1)c1nnc(C)n1-2 [Compound I-574] |

Reference: US20260062422A1 (Halda Therapeutics OpCo, Inc., priority 2022, published 2026)
